# According to US12369577B2, “Monoterpenoid/phenylpropanoid-containing compounds and methods of their making and use as baits” (KITTRICH CORPORATION, priority 2016, dated 2025):
# Entries after “also recorded” stand apart in the source; their conditions may differ.
# Key:
# [1] = tested on: house flies (Musca domestica); test: House fly feeding assay, solid food, choice assay; format: in vivo; conditions: 15% w/w food; treated and untreated food; 5-days post exposure (FIG. 6)
# Source text: The choice assay included one untreated food source of 1:1 evaporated milk powder and sucrose and one treated food source (with toxic biorational compounds) comprised of the same materials. Moreover, toxic insecticidal bait compounds were incorporated into the food mixture at a concentration of 15% w/w food. This increased concentration of toxic insecticidal bait was chosen to account for the concomitant lower percentage mortality expected due to the presence of both a treated and untreated food source. Mortality was recorded at 5-days post exposure.
# Data is presented as average percentage mortality with the standard error of the mean (SEM). This number was compared to the total number of flies introduced to each aquaria for each replicate, and a percentage mortality was calculated. A minimum of three replicates were performed for each compound.
# [2] = tested on: house flies (Musca domestica); conditions: in vivo
# Procedure: House flies (Musca domestica) were obtained from an established colony maintained by the Pesticide Toxicology Laboratory, Department of Entomology at iowa State University, Ames IA Flies were maintained according to standard laboratory protocols. House flies were supplied with water via cotton wick and solid support of sugar and dry milk (mixed 1:1), ad libitum. Prior to testing, house flies were maintained at a temperature of 24±2° C., were held at 30%±10% relative humidity, and a 12:12 hr light:dark photoperiod. Flies were randomly chosen from one of three separate Bioquip BugDorm® cages on different days to prevent a potential bias in health.
# [3] = tested on: Northern house mosquitoes (Culex pipiens); conditions: 0.1%
# [4] = tested on: German cockroaches (Blattella germanica); test: German cockroach feeding assay (compound in crushed Cheerios); format: in vivo; conditions: for percentage mortality compared to the control at two weeks / percentage mortality compared to the control: 3.75% weight compound/weight food; for percentage mortality compared to the control at two weeks: α=0.05 (FIG. 2); for mortality at two weeks: 15% w/w food, two weeks (FIG. 3); for percentage mortality compared to the control: 1, 2, and 3 weeks (FIG. 1)
# Procedure: Insects were kept in a constant 12:12-hour light: dark cycle and fed a diet of dry cat food (Purina® Cat Chow Complete®, rolled oats (HyVEE® Old Fashioned Oats), and Fluker's® Cricket Quencher.
# Five adult German cockroaches (Blattella germanica) were introduced to mason jars with steel mesh at the top to prevent escape. 266.6 mg of crushed Cheerios™ (approximately two cheerios) was mixed with compound at varying concentrations by weight food. If the material was solid, a mortar and pestle was used to homogenize the crushed Cheerios and compound. If the material was a liquid, it was dissolved in acetone and aliquoted into the food slowly until the desired concentration of compound by weight food was achieved. If acetone was used as the carrier throughout the experiment, the food was carefully stirred repeatedly to ensure evaporation so that no more acetone was present in the food. This was done to prevent mortality due to the presence of solvent in the treated food. Controls consisted of food that was treated with approximately 1 mL of just acetone. […] Concentrations used to assess mortality were 3.75% and 15% weight compound by weight food. Total mortality was assessed at 2 weeks after introducing cockroaches into individual mason jars with food treated with different compounds.
# Data is presented as average percentage mortality with the standard error of the mean (SEM). A minimum of three replicates were performed for each compound and a ANOVA with a post-hoc Student Newman-Kuels test was performed to compare individual treatments to the control (α=0.05).
# [5] = tested on: house flies (Musca domestica); test: House fly feeding assay, solid food, non-choice; format: in vivo; conditions: 5% weight/weight food compound plus 0.5% Z-9-tricosene (Muscalure) (FIG. 5)
# Source text: Approximately 20-30 adult house flies (Musca domestica) were introduced into aquaria (2.5 gallon) with a French square filled with de-ionized water. Cotton dental wicks were used to draw water up and present it to flies at the top of the French square. Different concentrations of compounds were introduced into 1:1 mixtures of evaporated milk powder and sucrose. 2 grams of food was provided to flies with compound incorporated at various weights by weight food. If the material was solid, a mortar and pestle was used to homogenize the crushed evaporated milk powder, sucrose, and compound. If the material was a liquid, it was dissolved in acetone and aliquotted into the food slowly until the desired concentration of compound by weight food was achieved. If acetone was used as the carrier throughout the experiment, the food was carefully stirred repeatedly to ensure evaporation so that no more acetone was present in the food. The concentration used to assess mortality was 5% weight compound by weight food. Total mortality was assessed at 5 days after introducing house flies into individual mason jars with food treated with different compounds. […]
# Data is presented as average percentage mortality with the standard error of the mean (SEM). This number was compared to the total number of flies introduced to each aquaria for each replicate, and a percentage mortality was calculated. […]
smiles,measurement,setting,value
CC(C)=CCC/C(C)=C/COC(=O)COc1cc(C)ccc1C(C)C [geranyl thymyloxyacetate],toxicity and palatability in choice assay,[1],significant levels of toxicity
Cc1ccc(C(C)C)c(OCC(=O)O)c1 [thymyloxyacetic acid],mortality compared with boric acid,[2],performed similarly
same,percentage mortality at 48 hours,[2],26.7%
same,percentage mortality at 72 hours,[2],80%
same,percentage mortality at 96 hours,[2],93.3%
same,percentage mortality at 120 hours,[2],100%
same,percentage mortality compared to boric acid (FIG. 8 legend),"[3]; 96, 120, and 144 hours",higher numerical percentage mortality than boric acid
same,percentage mortality compared to the sucrose-only control,"[3]; 96, 120, and 144 hours (FIG. 8)",statistically significant percentage mortality compared to the sucrose-only control
same,percentage mortality compared to boric acid,[3]; 120 and 144 hours,much higher numerical percentage mortality compared to boric acid
same,maximum percentage mortality,[3]; 144 hours after introduction,95±3.53%
same,performance compared with boric acid,"[3]; all time points, lack of statistical significance",performed as well as boric acid
Cc1ccc(C(C)C)c(OCC(=O)OC(C)C)c1 [isopropyl ester of thymyloxyacetic acid],toxicity and palatability in choice assay,[1],significant levels of toxicity
"Cc1ccc(C(C)C)c(O)c1 [thymol, reference compound]",percentage mortality at 120 hours,[2],25±10.7%
"CC(C)=CCCC(C)CC(=O)OCC(O)COC(=O)CC(C)CCC=C(C)C (centres unmarked) [dicitronelloyl glycerol, dicitronelloylglycerol]",percentage mortality compared to the control at two weeks,[4],statistically significant percentage mortality compared to the control
CC(C)=CCCC(C)CCOC(=O)COc1cc(C)ccc1C(C)C (centres unmarked),toxicity and palatability in choice assay,[1],significant levels of toxicity
"CC(C)=CCCC(C)CC(=O)OC1C(OC(=O)CC(C)CCC=C(C)C)C(OC(=O)CC(C)CCC=C(C)C)C(OC(=O)CC(C)CCC=C(C)C)C(OC(=O)CC(C)CCC=C(C)C)C1OC(=O)CC(C)CCC=C(C)C (centres unmarked) [hexacitronellyl inositol, hexacitronelloylinositol]",mortality at two weeks,[4],100%
O=C(CCCCC(=O)OC/C=C/c1ccccc1)OC/C=C/c1ccccc1 [dicinnamyl adipate],percentage mortality with added Z-9-tricosene,[5],higher percentage mortality; also recorded: increased toxicity
CC(C)=CCCC(C)CC(=O)OCCOC(=O)CC(C)CCC=C(C)C (centres unmarked) [ethylene dicitronellate],percentage mortality compared to the control,[4],considerably higher percentage mortality at all time points compared to the control group
same,percentage mortality compared to the control,[4]; listed as Ethylene dicitronellate,considerably higher percentage mortality compared to the control
same,percentage mortality compared to the control at two weeks,[4],statistically significant percentage mortality compared to the control
same,mortality at two weeks,[4],100%
"OB(O)O [boric acid, reference compound]",percentage mortality at 120 hours,[2],100%
"CCCCCOC(=O)COc1cc(C)ccc1C(C)C [amyl ester of thymyloxyacetic acid, amyl thymyloxyacetate]",toxicity and palatability in choice assay,[1],significant levels of toxicity
